From patent US11453703B2, “Heterotandem bicyclic peptide complexes” (BicycleTX Limited, priority 2018, dated 2022)
pEC50: −log10 of the molar value.

Molecular target: CD137 (Homo sapiens, UniProt Q07011)
Assay: CD137 reporter assay, co-culture with PD-L1 expressing cell line RKO
Format: cell-based
Parameters: host or cells: Jurkat reporter cells
Settings: tumour target PD-L1, co-culture with RKO, 6 h
Protocol: Culture medium referred to as R1 media is prepared by adding 1% FBS to RPMI-1640 (component of Promega kit CS196005). Serial dilutions of test articles in R1 are prepared in a sterile 96 well-plate. Use 25 μl per well of test articles or R1 (as a background control) to designated wells in white cell culture plate. Tumour cells* are harvested and resuspended at a concentration of 400,000 cells/mL in R1 media. Twenty five (25) μL/well tumour cells are used in white cell culture plate. Jurkat cells (Promega kit CS196005, 0.5 mL) are thawed in the water bath and then added to 5 ml pre-warmed R1 medium. Twenty five (25) μL/well Jurkat cells are used in white cell culture plate. Incubate the cells and test articles for 6h at 37° C., 5% CO2. At the end of 6 h, add 75 μl/well Bio-Glo™ (Promega) and incubate for 10 min before reading luminescence in a plate reader (Clariostar, BMG). The fold change relative to cells (Jurkat cells+Cell line used in co-culture) is calculated and plotted in GraphPad Prism as log(agonist) vs response to determine EC50 (nM) and Fold Induction over background (Max)

Sequence of CD137 (Q07011 24-255): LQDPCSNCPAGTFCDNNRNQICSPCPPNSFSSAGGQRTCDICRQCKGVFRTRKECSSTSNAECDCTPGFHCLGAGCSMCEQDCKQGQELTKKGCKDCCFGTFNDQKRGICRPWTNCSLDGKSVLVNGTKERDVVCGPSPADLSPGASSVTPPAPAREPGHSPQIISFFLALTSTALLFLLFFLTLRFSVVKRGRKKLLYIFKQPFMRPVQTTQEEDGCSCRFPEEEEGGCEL

Structure (SMILES) | pEC50 | Fold Induction over Background | fold induction (read-out: Fold Induction over Background)
CCCC[C@@H]1NC(=O)[C@H](Cc2ccc(O)cc2)NC(=O)[C@@H]2CCCN2C(=O)[C@H](CC(=O)O)NC(=O)[C@H](C)NC(=O)[C@H](Cc2ccccc2)NC(=O)[C@@H]2CSCCC(=O)N3CN(CN(C3)C(=O)CCSC[C@@H](C(=O)N[C@@H](CNC(=O)CCOCCOCCOCCOCCOCCOCCOCCOCCOCCOCCOCCOCCn3cc(CCC(=O)NCCCC[C@@H]4NC(=O)[C@H](CCC(N)=O)NC(=O)[C@@H]5CSCCC(=O)N6CN(CN(C6)C(=O)CCSC[C@H](NC(=O)[C@H](CCCCN)NC(=O)[C@H](CC(=O)O)NC(=O)[C@@H](N)CO)C(=O)N[C@@H](CO)C(=O)N[C@@H](C)C(=O)NCC(=O)N[C@@H](Cc6c[nH]c7ccccc67)C(=O)N[C@@H](CC(C)C)C(=O)N[C@@H]([C@@H](C)O)C(=O)N[C@@H](CCSC)C(=O)N5)C(=O)CCSC[C@@H](C(N)=O)NC(=O)[C@H](CC(C)C)NC(=O)[C@H](Cc5c[nH]cn5)NC(=O)[C@H](CC(C)C)NC4=O)nn3)C(N)=O)NC1=O)C(=O)CCSC[C@H](NC(C)=O)C(=O)N[C@@H](CC(C)(C)C)C(=O)N1CCC[C@H]1C(=O)N[C@@H](CCC(=O)O)C(=O)N[C@H](C)C(=O)N1CCC[C@H]1C(=O)N[C@@H](Cc1ccc(O)cc1)C(=O)N2 [BCY10582] | 7.55 | 4 fold | 
CCCC[C@@H]1NC(=O)[C@H](Cc2ccc(O)cc2)NC(=O)[C@@H]2CCCN2C(=O)[C@H](CC(=O)O)NC(=O)[C@H](C)NC(=O)[C@H](Cc2ccccc2)NC(=O)[C@@H]2CSCCC(=O)N3CN(CN(C3)C(=O)CCSC[C@@H](C(=O)N[C@@H](C)C(N)=O)NC1=O)C(=O)CCSC[C@H](NC(C)=O)C(=O)N[C@@H](CC(C)(C)C)C(=O)N1CCC[C@H]1C(=O)N[C@@H](CCCCNC(=O)CCOCCOCCOCCOCCOCCOCCOCCOCCOCCOCCOCCOCCn1cc(CCC(=O)NCCCC[C@@H]3NC(=O)[C@H](CCC(N)=O)NC(=O)[C@@H]4CSCCC(=O)N5CN(CN(C5)C(=O)CCSC[C@@H](C(=O)N5CCC[C@H]5C(=O)N[C@@H](CO)C(=O)N[C@@H](Cc5c[nH]cn5)C(N)=O)NC(=O)[C@H](CC(C)C)NC(=O)[C@H](Cc5c[nH]cn5)NC(=O)[C@H](CC(C)C)NC3=O)C(=O)CCSC[C@H](NC(=O)[C@H](CCCCN)NC(=O)[C@H](CC(=O)O)NC(=O)[C@H](CO)NC(C)=O)C(=O)N[C@@H](CO)C(=O)N[C@@H](C)C(=O)NCC(=O)N[C@@H](Cc3c[nH]c5ccccc35)C(=O)N[C@@H](CC(C)C)C(=O)N[C@@H]([C@@H](C)O)C(=O)N[C@@H](CCSC)C(=O)N4)nn1)C(=O)N[C@H](C)C(=O)N1CCC[C@H]1C(=O)N[C@@H](Cc1ccc(O)cc1)C(=O)N2 [BCY11017] |  | 4 fold | 
CCCC[C@@H]1NC(=O)[C@H](Cc2ccc(O)cc2)NC(=O)[C@@H]2CCCN2C(=O)[C@H](CC(=O)O)NC(=O)[C@H](C)NC(=O)[C@H](Cc2ccccc2)NC(=O)[C@@H]2CSCCC(=O)N3CN(CN(C3)C(=O)CCSC[C@@H](C(=O)N[C@@H](C)C(N)=O)NC1=O)C(=O)CCSC[C@H](NC(C)=O)C(=O)N[C@@H](CC(C)(C)C)C(=O)N1CCC[C@H]1C(=O)N[C@@H](CCC(=O)O)C(=O)N[C@H](CCCCNC(=O)CCOCCOCCOCCOCCOCCOCCOCCOCCOCCOCCOCCOCCn1cc(CCC(=O)NCCCC[C@@H]3NC(=O)[C@H](CCC(N)=O)NC(=O)[C@@H]4CSCCC(=O)N5CN(CN(C5)C(=O)CCSC[C@@H](C(=O)N5CCC[C@H]5C(=O)N[C@@H](CO)C(=O)N[C@@H](Cc5c[nH]cn5)C(N)=O)NC(=O)[C@H](CC(C)C)NC(=O)[C@H](Cc5c[nH]cn5)NC(=O)[C@H](CC(C)C)NC3=O)C(=O)CCSC[C@H](NC(=O)[C@H](CCCCN)NC(=O)[C@H](CC(=O)O)NC(=O)[C@H](CO)NC(C)=O)C(=O)N[C@@H](CO)C(=O)N[C@@H](C)C(=O)NCC(=O)N[C@@H](Cc3c[nH]c5ccccc35)C(=O)N[C@@H](CC(C)C)C(=O)N[C@@H]([C@@H](C)O)C(=O)N[C@@H](CCSC)C(=O)N4)nn1)C(=O)N1CCC[C@H]1C(=O)N[C@@H](Cc1ccc(O)cc1)C(=O)N2 [BCY11018] |  | 7 fold | 
CCCC[C@@H]1NC(=O)[C@H](Cc2ccc(O)cc2)NC(=O)[C@@H]2CCCN2C(=O)[C@H](CC(=O)O)NC(=O)[C@H](C)NC(=O)[C@H](Cc2ccccc2)NC(=O)[C@@H]2CSCCC(=O)N3CN(CN(C3)C(=O)CCSC[C@@H](C(=O)N[C@@H](CNC(=O)CCOCCOCCOCCOCCOCCOCCOCCOCCOCCOCCOCCOCCn3cc(CCC(=O)NCCCC[C@@H]4NC(=O)[C@H](CCC(N)=O)NC(=O)[C@@H]5CSCCC(=O)N6CN(CN(C6)C(=O)CCSC[C@@H](C(=O)N6CCC[C@H]6C(=O)N[C@@H](CO)C(=O)N[C@@H](Cc6c[nH]cn6)C(N)=O)NC(=O)[C@H](CC(C)C)NC(=O)[C@H](Cc6c[nH]cn6)NC(=O)[C@H](CC(C)C)NC4=O)C(=O)CCSC[C@H](NC(=O)[C@H](CCCCN)NC(=O)[C@H](CC(=O)O)NC(=O)[C@H](CO)NC(C)=O)C(=O)N[C@@H](CO)C(=O)N[C@@H](C)C(=O)NCC(=O)N[C@@H](Cc4c[nH]c6ccccc46)C(=O)N[C@@H](CC(C)C)C(=O)N[C@@H]([C@@H](C)O)C(=O)N[C@@H](CCSC)C(=O)N5)nn3)C(N)=O)NC1=O)C(=O)CCSC[C@H](NC(C)=O)C(=O)N[C@@H](CC(C)(C)C)C(=O)N1CCC[C@H]1C(=O)N[C@@H](CCC(=O)O)C(=O)N[C@H](C)C(=O)N1CCC[C@H]1C(=O)N[C@@H](Cc1ccc(O)cc1)C(=O)N2 [BCY11019] |  |  | 6
CCCC[C@@H]1NC(=O)[C@H](Cc2ccc(O)cc2)NC(=O)[C@@H]2CCCN2C(=O)[C@H](CC(=O)O)NC(=O)[C@H](C)NC(=O)[C@H](Cc2ccccc2)NC(=O)[C@@H]2CSCCC(=O)N3CN(CN(C3)C(=O)CCSC[C@@H](C(=O)N[C@@H](C)C(N)=O)NC1=O)C(=O)CCSC[C@H](NC(C)=O)C(=O)N[C@@H](CC(C)(C)C)C(=O)N1CCC[C@H]1C(=O)N[C@@H](CCCCNC(=O)Cn1cc(CCC(=O)NCCCC[C@@H]3NC(=O)[C@H](CCC(N)=O)NC(=O)[C@@H]4CSCCC(=O)N5CN(CN(C5)C(=O)CCSC[C@@H](C(=O)N5CCC[C@H]5C(=O)N[C@@H](CO)C(=O)N[C@@H](Cc5c[nH]cn5)C(N)=O)NC(=O)[C@H](CC(C)C)NC(=O)[C@H](Cc5c[nH]cn5)NC(=O)[C@H](CC(C)C)NC3=O)C(=O)CCSC[C@H](NC(=O)[C@H](CCCCN)NC(=O)[C@H](CC(=O)O)NC(=O)[C@H](CO)NC(C)=O)C(=O)N[C@@H](CO)C(=O)N[C@@H](C)C(=O)NCC(=O)N[C@@H](Cc3c[nH]c5ccccc35)C(=O)N[C@@H](CC(C)C)C(=O)N[C@@H]([C@@H](C)O)C(=O)N[C@@H](CCSC)C(=O)N4)nn1)C(=O)N[C@H](C)C(=O)N1CCC[C@H]1C(=O)N[C@@H](Cc1ccc(O)cc1)C(=O)N2 [BCY11376] |  | 9 fold | 
CCCC[C@@H]1NC(=O)[C@H](Cc2ccc(O)cc2)NC(=O)[C@@H]2CCCN2C(=O)[C@H](CC(=O)O)NC(=O)[C@H](C)NC(=O)[C@H](Cc2ccccc2)NC(=O)[C@@H]2CSCCC(=O)N3CN(CN(C3)C(=O)CCSC[C@@H](C(=O)N[C@@H](C)C(N)=O)NC1=O)C(=O)CCSC[C@H](NC(C)=O)C(=O)N[C@@H](CC(C)(C)C)C(=O)N1CCC[C@H]1C(=O)N[C@@H](CCC(=O)O)C(=O)N[C@H](CCCCNC(=O)Cn1cc(CCC(=O)NCCCC[C@@H]3NC(=O)[C@H](CCC(N)=O)NC(=O)[C@@H]4CSCCC(=O)N5CN(CN(C5)C(=O)CCSC[C@@H](C(=O)N5CCC[C@H]5C(=O)N[C@@H](CO)C(=O)N[C@@H](Cc5c[nH]cn5)C(N)=O)NC(=O)[C@H](CC(C)C)NC(=O)[C@H](Cc5c[nH]cn5)NC(=O)[C@H](CC(C)C)NC3=O)C(=O)CCSC[C@H](NC(=O)[C@H](CCCCN)NC(=O)[C@H](CC(=O)O)NC(=O)[C@H](CO)NC(C)=O)C(=O)N[C@@H](CO)C(=O)N[C@@H](C)C(=O)NCC(=O)N[C@@H](Cc3c[nH]c5ccccc35)C(=O)N[C@@H](CC(C)C)C(=O)N[C@@H]([C@@H](C)O)C(=O)N[C@@H](CCSC)C(=O)N4)nn1)C(=O)N1CCC[C@H]1C(=O)N[C@@H](Cc1ccc(O)cc1)C(=O)N2 [BCY11377] |  | 6 fold | 
CCCC[C@@H]1NC(=O)[C@H](Cc2ccc(O)cc2)NC(=O)[C@@H]2CCCN2C(=O)[C@H](CC(=O)O)NC(=O)[C@H](C)NC(=O)[C@H](Cc2ccccc2)NC(=O)[C@@H]2CSCCC(=O)N3CN(CN(C3)C(=O)CCSC[C@@H](C(=O)N[C@@H](CNC(=O)Cn3cc(CCC(=O)NCCCC[C@@H]4NC(=O)[C@H](CCC(N)=O)NC(=O)[C@@H]5CSCCC(=O)N6CN(CN(C6)C(=O)CCSC[C@@H](C(=O)N6CCC[C@H]6C(=O)N[C@@H](CO)C(=O)N[C@@H](Cc6c[nH]cn6)C(N)=O)NC(=O)[C@H](CC(C)C)NC(=O)[C@H](Cc6c[nH]cn6)NC(=O)[C@H](CC(C)C)NC4=O)C(=O)CCSC[C@H](NC(=O)[C@H](CCCCN)NC(=O)[C@H](CC(=O)O)NC(=O)[C@H](CO)NC(C)=O)C(=O)N[C@@H](CO)C(=O)N[C@@H](C)C(=O)NCC(=O)N[C@@H](Cc4c[nH]c6ccccc46)C(=O)N[C@@H](CC(C)C)C(=O)N[C@@H]([C@@H](C)O)C(=O)N[C@@H](CCSC)C(=O)N5)nn3)C(N)=O)NC1=O)C(=O)CCSC[C@H](NC(C)=O)C(=O)N[C@@H](CC(C)(C)C)C(=O)N1CCC[C@H]1C(=O)N[C@@H](CCC(=O)O)C(=O)N[C@H](C)C(=O)N1CCC[C@H]1C(=O)N[C@@H](Cc1ccc(O)cc1)C(=O)N2 [BCY11378] | 7.10 | 3 fold | 
